Reference: ChEMBL document CHEMBL1151059, “Synthesis and x-ray structure of a potent superpositional analog of the enantiomeric forms of fluoxetine” (Bioorg Med Chem Lett, 1993)

Assay: Tested in vitro for inhibition of Serotonin uptake
Format: functional

| Compound | Activity [nM] |
| --- | --- |
| CNCCC(Oc1ccc(C(F)(F)F)cc1)c1ccccc1 (configuration not stated) | 700 |
| FC(F)(F)c1ccc(OC2(c3ccccc3)CCNCC2)cc1 | 580 |
